Test results published in patent US6602861B1, “Acylated phospholipid drugs” (Research Corporation Technologies, Inc., priority 1992, dated 2003).
Entries after “also recorded” stand apart in the source; their conditions may differ. Like-named read-outs stand apart in the source and are kept apart here.

What was measured:
HIV-1 (3B) = experiment: HIV-1 p24 antigen capture assay in infected monocyte-derived macrophages; assay type: cell-based; settings: for dose response behaviour in MDM: 1-100 μM; for inhibition of HIV p24 antigen production in MDM: 50 μM
in vitro = experiment: in vitro
Experimental: Stability of Anti-HIV Phlospholipids in Fresh Blood at 38° C.
Drug development using phospholipids will require that the parent compound is stable in blood. […] L-PE1 and L-PE2 are identical except that the methylene group in the 13 position of the sn-2 alkyl chain has been replaced with an oxygen atom.

[1] = Liposome formation in aqueous buffers; assay type: physicochemical
From the text: The increased activity of L-AC1 in MDM compared to CEM cells may be due to the phagocytosis of L-AC1 liposomes in MDM.

HIV [2] = experiment: Anti-HIV activity of D-AC2 and PE analogs compared with 12MO (FIG. 7); assay type: cell-based
MT4 cells = experiment: Drug cytotoxicity MTT assay (TC50), uninfected MT4 cells; assay type: cell-based
Experimental: (§1) Three assays for anti-HIV activity were used and the IC50 was calculated from these assays; (i) syncytial cell assays, (ii) reverse transcriptase assays, and (iii) direct […]. In addition, direct drug cytotoxicity was tested ‘as a control’ in each assay which merely means that the drug was dosed to the cells without virus present. This control assured that only the antiviral effect of the compound is measured. However, this drug cytotoxicity was not used to calculate the TC50 because the TC50 required doses of drug that were higher than the effective concentrations. Thus the TC50 is the dose of drug that kills 50% of the cells without virus present and was measured in MTT assays using the same cells type to evaluate antiviral activity. The therapeutic index was calculated from TC50/IC50. The ability of anti-HIV phospholipids to inhibit direct cytopathic effect caused by HIV infection was also measured.
(§2) MT4 cells were plated in 96-well microtiter plates at 8×10^4 cells/well in a volume of 90 μl. [Note: To compare TC50 to IC50, the same cell type used in antiviral assays was tested in the MTT assay; for these experiments, MT4 cells were used to evaluate the syncytial cell assays and PBMC's were used to compare the PBMC/RT assay]. To this was added one minimum cytotoxic dose of HIV in a volume of 10 μl. The test drug was added in 100 μl aliquots at several concentrations. A control plate using uninfected MT4 cells was set up simultaneously to assess cytotoxicity due to the drug alone. The plates were then incubated for five days at 37° C. Then the media was aspirated from the wells and replaced with 100 μl MTT solution (3-(4,5-dimethylthiazol-2-yl)-2,5-di-phenyltetrazolium bromide, 1 mg/ml in PBS) and incubated for 4 hours at 37° C. The plates were then centrifuged to pellet the cells, and the supernatants were removed (centrifugation can be omitted if the supernatants are removed carefully). […] Plates were read on an ELISA reader at Abs 570 nm. […]

HIV [3] = experiment: microbe, parasite or virus in culture
Experimental: (§3) Briefly, the assay was performed as follows. On Day 0, MT4 cells were infected with HIV. On Day 3, mix 10^3-10^4 infected cells (resuspend cells at 10^4-10^5 cells/ml so that the desired number of cells is in a volume of 100 μl) with 10^5 SupT1 cells (suspended at 10^6/ml, so that there are 10^5 cells per 100 μl) in a 96 well plate. Infected cells are titered to find the optimum number of syncytial cells to count. Cells are counted either manually or by flow cytometry. […] The time intervals for other cell lines may vary. To assay drugs that block syncytia formation, 50 μl SupT1, 50 μl infected (MT4) cells (total cell number is the same), and 100 μl of drug are present.

HIV infected MT4 cells [4] = experiment: Synergism with AZT in syncytial cell assays (FIG. 6); assay type: cell-based; settings: for increase in activity (shift in dose response curve) when AZT was added: plus 0.5 nM AZT
Experimental: as §3

PBMC = experiment: Drug cytotoxicity MTT assay (TC50), PBMC; assay type: cell-based; settings: PBMC cells, absence of HIV
Experimental: as §1
(§4) MT4 cells were plated in 96-well microtiter plates at 8×10^4 cells/well in a volume of 90 μl. [Note: To compare TC50 to IC50, the same cell type used in antiviral assays was tested in the MTT assay; for these experiments, MT4 cells were used to evaluate the syncytial cell assays and PBMC's were used to compare the PBMC/RT assay]. To this was added one minimum cytotoxic dose of HIV in a volume of 10 μl. […] Plates were read on an ELISA reader at Abs 570 nm. […]

[5] = biological target: bee venom phospholipase A2 (PLA2) (Apis mellifera, UniProt P00630)
[6] = system: HIV (S5G7, subclone of HTLVIIIB); experiment: microbe, parasite or virus in culture; assay type: cell-based; settings: 7 days after infection, read-out: IC50 50% Reduction in Reverse Transcriptase Activity PBMC
HIV-1 = settings: CEM cells
From the text: The S5G7 strain of HIV was used. S5G7 is a subclone of HTLVIIIB grown in H9 cells, and highly virulent regarding T cell infectivity, but less so for monocytes; this strain was obtained from Abbott Laboratories.
This assay measures the ability of a drug to inhibit the HIV virus from killing cells. CEM cells were used for this assay.
The T-cell HIV inhibition assay method of acutely infected cells is an automated tetrazolium based calorimetric assay adapted from Novak, et al., Aids Res. and Human Retroviruses, 6, 973 (1990). Assays were performed in 96-well tissue culture plates. CEM cells were grown in RPMI-1640 medium (Gibco) supplemented with 10% fetal calf serum and were then treated with polybrene (2 μg/ml). A 80 μl volume of medium containing 1×10^4 cells was dispensed into each well of the tissue culture plate. To each well was added a 100 μl volume of test compound dissolved in tissue culture medium (or medium without test compound as a control) to achieve the desired final concentration and the cells were incubated at 37° C. for 1 hour. A frozen culture of HIV-1 was diluted in culture medium to a concentration of 5×10^6 TCID50 per ml (TCID50=the dose of virus that infects 50% of cells in tissue culture), and a 20 μl volume of the virus sample (containing 1000 TCID50 of virus) was added to wells containing test compound and to wells containing only medium (infected control cells). […] Several wells received culture medium without virus (uninfected control cells). Azidothymidine (AZT) was tested as a positive drug control.
Following the addition of virus, cells were incubated at 37° C. in a humidified, 5% CO2 atmosphere for 7 days. Additional aliquots of test compounds were added on days 2 and 5. On day 7 post-infection, the cells in each well were resuspended and a 100 μl sample of each cell suspension was removed for assay. […] The absorbance of each sample was determined at 590 nm using a Molecular Devices microplate reader. The % reduction of the virus induced cytopathic effect (CPE) by the test compounds was calculated from the equation.

CEM cells [7] = system: CEM cells
HIV infected MT4 cells [8] = settings: literature report; cited from earlier work
[9] = system: monocyte-derived macrophages (MDM); experiment: Toxicity seen in the macrophage p24 experiment; settings: 100 μM
CEM cells [10] = experiment: Direct cytotoxicity of compounds to CEM cells without virus; settings: for direct cytotoxicity to CEM cells: no virus
[11] = Drug cytotoxicity MTT assay (TC50), uninfected MT4 cells; assay type: cell-based; settings: human, uninfected MT4 cells; MT4 cells, absence of HIV
Experimental: as §1, §2

[12] = Drug cytotoxicity MTT assay (TC50), PBMC; assay type: cell-based; settings: human, uninfected; PBMC cells, absence of HIV
Experimental: as §1, §4

[13] = delivered to cells as a free fatty acid; cited from earlier work

bee venom phospholipase A2 (PLA2), sequence (P00630 34-167 limits assumed): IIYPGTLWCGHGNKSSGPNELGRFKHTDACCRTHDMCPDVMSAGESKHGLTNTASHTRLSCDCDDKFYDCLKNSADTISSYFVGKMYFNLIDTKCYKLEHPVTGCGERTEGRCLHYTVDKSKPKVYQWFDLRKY

Question: Which “inhibition of HIV infection in macrophages (p24 antigen)” value (“inhibition of HIV infection” for short) (HIV-1 (3B); 1 μM, 15 day acute infection) does the source give for “1,2-(di-12-methoxydodecanoyl)-sn-3-phosphatidylcholine [L-AC2]” here?
Answer: completely suppressed

Question: And the “inhibition of HIV infection” value (HIV-1 (3B); 1 μM, 15 day acute infection, listed as AC2)?
Answer: completely effective

Question: And the “dose response behaviour in MDM” value (HIV-1 (3B))?
Answer: No dose response was observed

Question: What about the “inhibition of HIV infection” value (HIV-1 (3B); all doses tested (1-100 μM)) of the same molecule?
Answer: completely inhibited

Question: And the “potency in HIV infected MDM compared with 12MO” value (HIV-1 (3B); comparison in words)?
Answer: significantly more potent

Question: What about the “halflife in fresh blood” value (in vitro) of the same molecule?
Answer: 4.56 h

Question: What about the liposome formation [1] of the same molecule?
Answer: formed liposomes

Question: What about the IC50 (HIV [2]) of the same molecule?
Answer: ~1 µM

Question: And the CC50 (MT4 cells; MT4 cells, absence of HIV)?
Answer: 280 µM

Question: And the “TC50 in the presence of AZT” value (MT4 cells; uninfected MT4 cells, AZT 50 nM to 500 nM)?
Answer: unchanged

Question: What about the IC50 (HIV [3]; read-out: IC50 50% Reduction in syncytial cell formation MT4 cells, HIV infected MT4 cells, SupT1 target cells) of the same molecule?
Answer: 1 µM

Question: And the IC50 (HIV [3]; read-out: IC50 50% Reduction in syncytial cell formation MT4 cells, HIV infected MT4 cells, SupT1 target cells, listed as AC2)?
Answer: ~1 µM

Question: What about the “activity alone in syncytial cell assay” value (HIV infected MT4 cells [4]; 5 nM) of the same molecule?
Answer: inactive

Question: And the “inhibition of syncytia formation” value (HIV infected MT4 cells [4]; 5 nM L-AC2 plus 0.5 nM AZT, HIV infected MT4 cells)?
Answer: ~50%

Question: What about the “activity alone in syncytial cell assay” value (HIV infected MT4 cells [4]; 10 nM) of the same molecule?
Answer: inactive

Question: And the “synergistic effects with AZT” value (HIV infected MT4 cells [4]; compared with 12MO and AZT, FIG. 6)?
Answer: increased synergistic effects

Question: And the “increase in activity (shift in dose response curve) when AZT was added” value (HIV infected MT4 cells [4])?
Answer: approximately 100 fold

Question: What about the CC50 (PBMC) of the same molecule?
Answer: 220 µM

Question: What about the “hydrolysis by PLA2” value [5] of the same molecule?
Answer: quantitatively hydrolyzed

Question: And the IC50 ([6]; PBMC, listed as AC2)?
Answer: ~4 µM

Question: And the IC50 ([6]; PBMC)?
Answer: 6 µM

Question: For “1-(12-methoxydodecanoyl)-sn-3-glycerophosphatidylcholine [lysoAC2]”, which IC50 (HIV-1; read-out: IC50, reduction of virus induced cytopathic effect (CPE), 7 days, FIG. 1) is on record?
Answer: ~100 µM

Question: And the “toxicity compared with the other analogs” value (CEM cells [7])?
Answer: significantly less toxic

Question: Which “activity in direct cytopathic assay” value (HIV-1; 50 μM) does the source give for “1-myristoyl-2-(12-methoxydodecan-oyl)-sn-3-phosphalidylcholine [AC1]” here?
Answer: little activity

Question: And the “anti-HIV activity with the active fatty acid anchored in the sn-2 position” value (HIV-1; FIG. 1, in words)?
Answer: significantly reduced the activity

Question: What about the “inhibition of HIV p24 antigen production in MDM” value (HIV-1 (3B)) of the same molecule?
Answer: completely suppressed

Question: And the “inhibition of HIV infection” value (HIV-1 (3B); 100 μM)?
Answer: almost complete inhibition

Question: What about the “dose response behaviour in MDM” value (HIV-1 (3B); listed as L-AC1) of the same molecule?
Answer: dose responsive activity

Question: And the “toxicity compared with the other analogs” value (CEM cells [7])?
Answer: significantly less toxic

Question: What about the liposome formation [1] of the same molecule?
Answer: formed liposomes

Question: What does the source list for `COCCCCCCCCCCCC(=O)O` [12MO, 12-methoxydodecanoic acid, reference compound]?
Answer: synergism when administered concurrently with AZT (reported) (HIV infected MT4 cells [8]): act synergistically; toxicity in macrophage experiment [9]: toxic; inhibition of HIV p24 antigen production in MDM (HIV-1 (3B)): little activity; activity in MDM (HIV-1 (3B); 100 μM): ~100%; inhibition of HIV infection in macrophages (p24 antigen) (HIV-1 (3B); 100 μM): completely suppressed; also recorded: suppressed HIV replication; dose response behaviour in MDM (HIV-1 (3B)): very steep dose response effect; inhibition of HIV infection in macrophages (p24 antigen) (HIV-1 (3B); doses from 1 to 50 μM (below 100 μM)): little activity; direct cytotoxicity to CEM cells (CEM cells [10]; 40 μM): showed toxicity; toxicity compared with the other analogs (CEM cells [10]; CEM cells, comparison in words): most toxic analog tested in this series; direct cytotoxicity to CEM cells (CEM cells [10]; dose up to 400 μM): toxic; CC50 at 5 days [11]: 140 µM; IC50 (HIV [3]; Human immunodeficiency virus 1, read-out: IC50 50% Reduction in syncytial cell formation MT4 cells, HIV infected MT4 cells, SupT1 target cells): ~4 µM; Therapeutic Index MT4 cells (TC50/IC50) (HIV [3]; MT4 cells, syncytial cell assay): 35; increase in activity (shift in dose response curve) when AZT was added (HIV infected MT4 cells [4]): < 10 fold; CC50 at 5 days [12]: 340 µM; T2 for incorporation into triglycerides and membrane lipids [13]: 1 to 2 min; IC50 ([6]; Human immunodeficiency virus 1, PBMC, 168 h): ~12 µM; IC50 ([6]; PBMC): 19 µM

Question: For `CCCCCCCCCCCCCC(=O)OC[C@H](COP(=O)(O)OCCN)OC(=O)CCCCCCCCCCCOC` [L-PE1, 1-Myristoyl-2-[12-methoxydodecanoyl]-sn-glycero-3-phosphoethanolamine], which half-life (in vitro) is on record?
Answer: > 50 h

Question: And the IC50 (HIV [2]; Human immunodeficiency virus 1)?
Answer: 6 µM

Question: What does the source list for `COCCCCCCCCCCCC(=O)OC[C@H](COP(=O)(O)OCCN)OC(=O)CCCCCCCCCCCOC` [L-PE2, 1,2 di-(12-Methoxydodecanoyl)-sn-glycero-3-phosphoethanolamine]?
Answer: half-life (in vitro): 9.36 h; anti-HIV activity relative to 12MO (HIV [2]): > 100 fold; IC50 (HIV [2]; Human immunodeficiency virus 1): 0.02 µM
